A word on the IC50: it is the concentration at which inhibition is half-maximal.

This note sets out measurements from patent publication US20110021517A1, “ANTITUMOR COMBINATION COMPRISING A MORPHOLINYL ANTHRACYCLINE DERIVATIVE AND DEMETHYLATING AGENTS” (NERVIANO MEDICAL SCIENCES S.R.L., priority 2008, published 2011).

Like-named read-outs stand apart in the source and are kept apart here.

One experiment deals with L1210 cells. In words: Cytotoxic effect of nemorubicin on L1210 cells with or without pre-treatment with 5-aza-2′-deoxycytidine (cell counting, Coulter Counter). It is filed as cell-based, murine. As to conditions: for IC50: 24 h nemorubicin treatment, read-out: IC50 (dose inhibiting 50% cell growth). The protocol: (§1) The effect of 5-aza-2′-deoxycytidine on the cytotoxic activity of morpholinyl anthracycline derivative (nemorubicin) was tested on a murine leukaemia cell line (L1210 cells). Cells were grown in RPMI 1640 medium supplemented with 10% foetal calf serum. Exponentially growing cells were seeded and exposed to 5-aza-2′-deoxycytidine immediately after seeding for 6 days, so as to allow efficient demethylation of the CpG islands. […] Six days following 5-aza-2′-deoxycytidine treatment, cells were diluted and treated with different concentrations of nemorubicin (50, 100, 200 and 500 nM) in comparison with cells not pretreated with the demethylating agent 5-aza-2′-deoxycytidine. In vitro drug sensitivity was determined by counting surviving cells by a Coulter Counter apparatus. The antiproliferative activity of the drug was evaluated after 24 h treatment and calculated from dose-response curves and expressed as dose inhibiting 50% cell growth (IC50). IC50 values were calculated from two-three independent experiments each consisting of at least three replicates. Combination indices (CI) were calculated using a computer program for multiple drug effect analysis based on the equation of Chou-Talalay (Adv Enzyme Regul 1984; 22:27-55) for mutually non-exclusive drugs. CI values <0.3-0.8 are indicative of synergism, 0.8-1.2 are indicative of additivity, […] are indicative of antagonism.

A further experiment relates to L1210/MMRDX cells. The experiment in a line: Cytotoxic effect of nemorubicin on nemorubicin-resistant L1210/MMRDX cells with or without pre-treatment with 5-aza-2′-deoxycytidine. It is filed as cell-based, murine. The following applies: for IC50: 24 h nemorubicin treatment, read-out: IC50 (dose inhibiting 50% cell growth). On the procedure:
as §1
The effect of 5-aza-2′-deoxycytidine on the cytotoxic activity of nemorubicin was tested in comparison on L1210 cells and on the strain resistant to nemorubicin (L1210/MMRDX) (Geroni C. et al, Br J Cancer 9:315-19, 1994). Cells were grown in RPMI 1640 medium supplemented with 10% foetal calf serum. Exponentially growing cells were seeded and exposed to 5-aza-2′-deoxycytidine and nemorubicin as reported here above. In vitro drug sensitivity was determined by counting surviving cells by a Coulter Counter apparatus. The antiproliferative activity of the drug was evaluated after 24 h treatment and calculated from dose-response curves and expressed as IC50. IC50 values were calculated from two-three independent experiments each consisting of at least three replicates. Combination indices (CI) were calculated as described above.

For “(8S-cis, 2″S)-7,8,9,10-tetrahydro-6,8,11-trihydroxy-8-(hydroxyacetyl)-1-methoxy-10-{[2,3,6-trideoxy-3-(2-methoxy-4-morpholinyl)-α-L-lyxo-hexopyranosyl]oxy}-5,12-naphthacenedione [nemorubicin]”, the 50% inhibitory concentration (IC50) in the experiment on L1210 cells (L1210 cells pretreated with 5-aza-2′-deoxycytidine for 6 days) turned out to be 130 nM; in the experiment with L1210 cells (L1210 cells untreated (no 5-aza-2′-deoxycytidine pretreatment)), 210 nM; in the experiment on L1210/MMRDX cells (L1210/MMRDX cells pretreated with 5-aza-2′-deoxycytidine), 140 nM; in the experiment with L1210/MMRDX cells (L1210/MMRDX cells untreated (no 5-aza-2′-deoxycytidine pretreatment)), 480 nM. Further, the “Combination effect based on CI value (in words)” value in the experiment on L1210 cells (combination of nemorubicin and 5-aza-2′-deoxycytidine, L1210 cells) is on record as “synergistic effect”; in the experiment with L1210/MMRDX cells (combination of nemorubicin and 5-aza-2′-deoxycytidine, L1210/MMRDX cells), “strong synergistic effect”. Moreover, the “CI (combination index, Chou-Talalay)” value with L1210 cells (nemorubicin combined with 5-aza-2′-deoxycytidine pretreatment, L1210 cells) is reported as 0.14; in the experiment with L1210/MMRDX cells (nemorubicin combined with 5-aza-2′-deoxycytidine pretreatment, L1210/MMRDX cells), 0.06.
